ChEMBL document CHEMBL1795250, “Synthesis and base-pairing properties of C-nucleotides having 1-substituted 1H-1,2,3-triazoles” (Bioorg Med Chem Lett, 2009)

Experiments:
Type in all cases: nucleic-acid assay
Nucleic Acid [1] = test: Stabilization of 5'-AGAGAGACAGAAAAA-3' ssDNA sequence assessed as melting temperature at pH7 using 100 mM NaCl
Nucleic Acid [2] = test: Stabilization of 5'-AGAGAGAGAGAAAAA-3' ssDNA sequence assessed as melting temperature at pH7 using 100 mM NaCl
Nucleic Acid [3] = test: Stabilization of 5'-AGAGAGATAGAAAAA-3' ssDNA sequence assessed as melting temperature at pH7 using 100 mM NaCl
Nucleic Acid [4] = test: Stabilization of 5'-AGAGAGAAAGAAAAA-3' ssDNA sequence assessed as melting temperature at pH7 using 100 mM NaCl

Tm (Nucleic Acid [1]) [°C]	Tm (Nucleic Acid [2]) [°C]	Tm (Nucleic Acid [3]) [°C]	Tm (Nucleic Acid [4]) [°C]	SMILES
39	42	42	52	Cc1cn([C@H]2C[C@H](OP(=O)(O)OC[C@H]3O[C@@H](n4cc(C)c(=O)[nH]c4=O)C[C@@H]3OP(=O)(O)OC[C@H]3O[C@@H](n4cc(C)c(N)nc4=O)C[C@@H]3OP(=O)(O)OC[C@H]3O[C@@H](n4cc(C)c(=O)[nH]c4=O)C[C@@H]3O)[C@@H](COP(=O)(O)O[C@H]3C[C@H](n4cc(C)c(=O)[nH]c4=O)O[C@@H]3COP(=O)(O)O[C@H]3C[C@H](n4cc(C)c(N)nc4=O)O[C@@H]3COP(=O)(O)O[C@H]3C[C@H](n4cc(C)c(=O)[nH]c4=O)O[C@@H]3COP(=O)(O)O[C@H]3C[C@H](n4cc(C)c(=O)[nH]c4=O)O[C@@H]3COP(=O)(O)O[C@H]3C[C@H](n4cc(C)c(=O)[nH]c4=O)O[C@@H]3COP(=O)(O)O[C@H]3C[C@H](n4cc(C)c(N)nc4=O)O[C@@H]3COP(=O)(O)O[C@H]3C[C@H](n4cc(C)c(=O)[nH]c4=O)O[C@@H]3COP(=O)(O)O[C@H]3C[C@H](n4cc(C)c(=O)[nH]c4=O)O[C@@H]3COP(=O)(O)O[C@H]3C[C@H](n4cc(C)c(=O)[nH]c4=O)O[C@@H]3COP(=O)(O)O[C@H]3C[C@H](n4cc(C)c(=O)[nH]c4=O)O[C@@H]3COP(=O)(O)O[C@H]3C[C@H](n4cc(C)c(=O)[nH]c4=O)O[C@@H]3CO)O2)c(=O)nc1N
39	39	39	35	Cc1cn([C@H]2C[C@H](OP(=O)(O)OC[C@H]3O[C@@H](n4cc(C)c(=O)[nH]c4=O)C[C@@H]3OP(=O)(O)OC[C@H]3O[C@@H](n4cc(C)c(N)nc4=O)C[C@@H]3OP(=O)(O)OC[C@H]3O[C@@H](n4cc(C)c(=O)[nH]c4=O)C[C@@H]3OP(=O)(O)OC[C@H]3O[C@@H](n4cc(C)c(N)nc4=O)C[C@@H]3OP(=O)(O)OC[C@H]3O[C@@H](n4cc(C)c(=O)[nH]c4=O)C[C@@H]3O)[C@@H](COP(=O)(O)O[C@H]3C[C@H](n4cc(C)c(=O)[nH]c4=O)O[C@@H]3COP(=O)(O)O[C@H]3C[C@H](c4cn(CCCCCCCCCCO)nn4)O[C@@H]3COP(=O)(O)O[C@H]3C[C@H](n4cc(C)c(=O)[nH]c4=O)O[C@@H]3COP(=O)(O)O[C@H]3C[C@H](n4cc(C)c(N)nc4=O)O[C@@H]3COP(=O)(O)O[C@H]3C[C@H](n4cc(C)c(=O)[nH]c4=O)O[C@@H]3COP(=O)(O)O[C@H]3C[C@H](n4cc(C)c(=O)[nH]c4=O)O[C@@H]3COP(=O)(O)O[C@H]3C[C@H](n4cc(C)c(=O)[nH]c4=O)O[C@@H]3COP(=O)(O)O[C@H]3C[C@H](n4cc(C)c(=O)[nH]c4=O)O[C@@H]3COP(=O)(O)O[C@H]3C[C@H](n4cc(C)c(=O)[nH]c4=O)O[C@@H]3CO)O2)c(=O)nc1N
34	37	34	30	Cc1cn([C@H]2C[C@H](OP(=O)(O)OC[C@H]3O[C@@H](n4cc(C)c(=O)[nH]c4=O)C[C@@H]3OP(=O)(O)OC[C@H]3O[C@@H](n4cc(C)c(N)nc4=O)C[C@@H]3OP(=O)(O)OC[C@H]3O[C@@H](n4cc(C)c(=O)[nH]c4=O)C[C@@H]3OP(=O)(O)OC[C@H]3O[C@@H](n4cc(C)c(N)nc4=O)C[C@@H]3OP(=O)(O)OC[C@H]3O[C@@H](n4cc(C)c(=O)[nH]c4=O)C[C@@H]3O)[C@@H](COP(=O)(O)O[C@H]3C[C@H](n4cc(C)c(=O)[nH]c4=O)O[C@@H]3COP(=O)(O)O[C@H]3C[C@H](c4cn(C56CC7CC(CC(C7)C5)C6)nn4)O[C@@H]3COP(=O)(O)O[C@H]3C[C@H](n4cc(C)c(=O)[nH]c4=O)O[C@@H]3COP(=O)(O)O[C@H]3C[C@H](n4cc(C)c(N)nc4=O)O[C@@H]3COP(=O)(O)O[C@H]3C[C@H](n4cc(C)c(=O)[nH]c4=O)O[C@@H]3COP(=O)(O)O[C@H]3C[C@H](n4cc(C)c(=O)[nH]c4=O)O[C@@H]3COP(=O)(O)O[C@H]3C[C@H](n4cc(C)c(=O)[nH]c4=O)O[C@@H]3COP(=O)(O)O[C@H]3C[C@H](n4cc(C)c(=O)[nH]c4=O)O[C@@H]3COP(=O)(O)O[C@H]3C[C@H](n4cc(C)c(=O)[nH]c4=O)O[C@@H]3CO)O2)c(=O)nc1N
